Legend:
[1] = Lutein distribution in human cadaveric eyes after corneo-scleral iontophoresis, two-photon microscopy; format: in vitro ADME; settings: 2.5 mA for 5 min cornea/sclera, 80 min rest
Method: (§1) A typical iontophoretic setting is made of two components: ocular applicator and a return electrode both connected to a generator. In this experiment, the ocular applicator comprised 2 electrodes to address independently corneal and scleral tissues. The ocular applicator (OPIA Technologies SAS, Paris, France) is made of polyurethane resin and comprises 2 reservoirs: central circular reservoir (diameter 8 mm, height 4.5 mm, volume 1 ml) and a stainless steel electrode, applied on the cornea surrounded by an annular reservoir (inner diameter 12.5 mm, outer diameter 18 mm height 4.5 mm, volume 1 ml) and a stainless steel electrode, applied on the sclera (pars plana region around the limbus). Each stainless steel electrode connected with a lead to a different constant current generator (anode —positive electrode). The return electrodes were assigned to each generator and respectively attached to the optic nerve (for the corneal electrode) and the equator region of the sclera (for scleral electrode), closing each electrical circuit independently.
Cadaveric eyes. Six human cadaveric eye globes, from different healthy donors, were obtained from the Veneto Eye Bank Foundation (Venezia Zelarino, Italy). […]
(§2) Preparation of the eyes. […] After pre-conditioning, the central corneal thickness (CCT) was measured, using an ultrasound corneal pachymeter (Pachmate, DGH, Exton, USA). […]

[2] = Resonance Raman spectroscopy of ocular tissues of human cadaveric eyes after iontophoresis; format: in vitro ADME
Method: as §1
Cadaveric eyes. Six human cadaveric eye globes, from different healthy donors, were obtained from the Veneto Eye Bank Foundation (Venezia Zelarino, Italy). The human eyes were used in compliance with the guidelines of the Declaration of Helsinki for research involving the use of human tissue and were explanted between 3 and 16 hours after death and immediately preserved at 4° C. in corneal storage medium enriched with 6% dextran. The mean donor age was 63.6±5.9 years. The mean endothelial cell density was 2125±389 cells/mm^2. Each eye globe, submerged in dextran enriched solution, was shipped to the laboratory within 5 days. Four eye globes underwent corneo-scleral iontophoresis to deliver 0.1% lutein ophthalmic solution into the retinal tissue. Two eye globes were used as control: iontophoresis was performed without presence of the formulation.
as §2

In the case of CC1=C[C@H](O)CC(C)(C)[C@H]1/C=C/C(C)=C/C=C/C(C)=C/C=C/C=C(C)/C=C/C=C(C)/C=C/C1=C(C)C[C@@H](O)CC1(C)C [lutein], the “Lutein distribution within the retina, outer versus inner part” value [1] is reported as “more lutein in the outer part close to the photoreceptors than in the ganglion cells”, the “Lutein in the retina” value [1] is reported as “abundant in the retina” and the “Raman peak at 1530 cm−1, treated eye versus control eye” value ([2]; inner sclera) is reported as 7 times. For the same molecule, the “Raman peak at 1530 cm−1, treated eye versus controls” value ([2]; macula) was 1.3 times and the “Raman peak at 1530 cm−1, treated eye versus control eye” value ([2]; retinal mid-periphery) was 1.7 times.

— patent US20230329906A1, “INTRAOCULAR DELIVERY OF BIOACTIVE MOLECULES USING IONTOPHORESIS” (KEMIN INDUSTRIES, INC., priority 2014, published 2023)
